Results: US11492375B2, “Cyclic peptide immunomodulators” (Bristol-Myers Squibb Company, priority 2017, dated 2022)

Experiments:
[1] = molecular target: PD-1-Ig binding to PD-L1-TVMV-His (PD-L1-His) (Homo sapiens (Human), UniProt Q9NZQ7); assay: PD-1/PD-L1 Homogenous Time-Resolved Fluorescence (HTRF) binding assay; conditions: PD-1-Ig/PD-L1-His binding; value given as range class; read-out: HTRF IC50 (μM) or Range
Excerpt: The ability of the macrocyclic peptides of the present disclosure to bind to PD-L1 was investigated using a PD-1/PD-L1 Homogenous Time-Resolved Fluorescence (HTRF) binding assay.
Homogenous Time-Resolved Fluorescence (HTRF) Assays of Binding of Soluble PD-1 to Soluble PD-L1. Soluble PD-1 and soluble PD-L1 refers to proteins with carboxyl-end truncations that remove the transmembrane-spanning regions and are fused to heterologous sequences, specifically the Fc portion of the human immunoglobuling G sequence (Ig) or the hexahistidine epitope tag (His). All binding studies were performed in an HTRF assay buffer consisting of dPBS supplemented with 0.1% (w/v) bovine serum albumin and 0.05% (v/v) Tween-20. For the PD-1-Ig/PD-L1-His binding assay, inhibitors were pre-incubated with PD-L1-His (10 nM final) for 15m in 4 μl of assay buffer, followed by addition of PD-1-Ig (20 nM final) in 1 μl of assay buffer and further incubation for 15 m. PD-L1 fusion proteins from either human, cynomologous macaques, mouse, or other species were used. HTRF detection was achieved using europium crypate-labeled anti-Ig monoclonal antibody (1 nM final) and allophycocyanin (APC) labeled anti-His monoclonal antibody (20 nM final). Antibodies were diluted in HTRF detection buffer and 5 μl was dispensed on top of binding reaction. The reaction was allowed to equilibrate for 30 minutes and signal (665 nm/620 nm ratio) was obtained using an EnVision fluorometer. Additional binding assays were established between PD-1-Ig/PD-L2-His (20 and 5 nM, respectively), CD8O-His/PD-L1-Ig (100 and 10 nM, respectively) and CD80-His/CTLA4-Ig (10 and 5 nM, respectively). Binding/competition studies between biotinylated Compound No. 71 and human PD-L1-His were performed as follows. Macrocyclic peptide inhibitors were pre-incubated with PD-L1-His (10 nM final) for 60 minutes in 4 μl of assay buffer followed by addition of biotinylated Compound No. 71 (0.5 nM final) in 1 μl of assay buffer. Binding was allowed to equilibrate for 30 minutes followed by addition of europium crypated labeled Streptavidin (2.5 pM final) and APC-labeled anti-His (20 nM final) in 5 μl of HTRF buffer. The reaction was allowed to equilibrate for 30 m and signal (665 nm/620 nm ratio) was obtained using an EnVision fluorometer.
Recombinant Proteins. Carboxyl-truncated human PD-1 (amino acids 25-167) with a C-terminal human Ig epitope tag [hPD-1 (25-167)-35-IG] and human PD-L1 (amino acids 18-239) with a C-terminal His epitope tag [hPD-L1(19-239)-tobacco vein mottling virus protease cleavage site (TVMV)-His] were expressed in HEK293T cells and purified sequentially by recombinant Protein A affinity chromatography and size exclusion chromatography. Human PD-L2-His (Sino Biologicals), CD80-His (Sino Biologicals), CTLA4-Ig (RnD Systems) were all obtained through commercial sources.

[2] = oral formulation ENTOCORT EC, extensive first-pass metabolism; cited from earlier work

Sequence of PD-1-Ig binding to PD-L1-TVMV-His (PD-L1-His) (Q9NZQ7 other isoform, or with tags, fused parts or gaps): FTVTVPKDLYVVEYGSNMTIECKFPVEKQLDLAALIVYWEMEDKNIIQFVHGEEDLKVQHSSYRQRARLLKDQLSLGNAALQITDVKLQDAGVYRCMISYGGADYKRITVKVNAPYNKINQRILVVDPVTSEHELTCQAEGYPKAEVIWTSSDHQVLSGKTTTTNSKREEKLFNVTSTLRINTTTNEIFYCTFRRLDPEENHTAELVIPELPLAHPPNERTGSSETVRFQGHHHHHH

Structure (SMILES)	IC50 [1] [µM]	bioavailability [2]
CC(C)C[C@@H]1NC(=O)[C@H](Cc2cnc[nH]2)NC(=O)[C@@H]2CCCN2C(=O)[C@H](CC(N)=O)NC(=O)[C@H](C)N(C)C(=O)[C@H](Cc2ccccc2)NC(=O)CSC[C@@H](C(=O)NCC(N)=O)NC(=O)[C@H](CCCNC(=N)N)NC(=O)[C@@H]2CCCC/C=C\CCCC[C@@H](C(=O)N2C)N(C)C(=O)[C@H](Cc2c[nH]c3ccccc23)NC(=O)[C@H](CO)NC(=O)[C@H](Cc2c[nH]c3ccccc23)NC(=O)CN(C)C1=O [Example 1100]	0.01 to 0.099	–
CCCC1O[C@@H]2C[C@H]3[C@@H]4CCC5=CC(=O)C=C[C@]5(C)[C@H]4[C@@H](O)C[C@]3(C)[C@]2(C(=O)CO)O1 (stereo partly drawn) [budesonide]	–	about 10%
CC(C)C[C@@H]1NC(=O)[C@H](Cc2cnc[nH]2)NC(=O)[C@@H]2CCCN2C(=O)[C@H](CC(N)=O)NC(=O)[C@H](C)N(C)C(=O)[C@H](Cc2ccc(O)cc2)NC(=O)CSC[C@@H](C(=O)NCC(N)=O)NC(=O)[C@H](CCCNC(=N)N)NC(=O)[C@@H]2CCC/C=C\CCC[C@@H](C(=O)N2C)N(C)C(=O)[C@H](Cc2c[nH]c3ccccc23)NC(=O)[C@H](CO)NC(=O)[C@H](Cc2c[nH]c3ccccc23)NC(=O)[C@@H]2C[C@@H](O)CN2C1=O [Example 1101]	0.1 to 2	–
